Reference: PubChem BioAssay AID330 (DTP/NCI, 2004)
“And” between values parts separate entries of the source, which are not always exact repeats. Equal entries are not always repeated. Toxic doses and inconclusive results are not listed.

Tested on: P388 leukemia ip, CD2F1 mice, survival T/C
Experiment: NCI In Vivo Anticancer Drug Screen. Data for tumor model P388 Leukemia (intraperitoneal) in CD2F1 (CDF1) mice
Conditions: endpoint: median survival time, higher = longer survival
In short: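 Mice carrying the transplanted tumor received test compound or vehicle. Survival was recorded in each group, and the value is the treated-group measurement divided by that of the vehicle-treated control group.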

[1] = dose: 50.0 mg/kg/injection, schedule: Q01DX009 (ip), vehicle: saline with Tween-80
[2] = dose: 100.0 mg/kg/injection, schedule: Q01DX009 (ip), vehicle: saline with Tween-80
[3] = dose: 200.0 mg/kg/injection, schedule: Q01DX009 (ip), vehicle: saline with Tween-80
[4] = dose: 12.5 mg/kg/injection, schedule: Q01DX009 (ip), vehicle: saline with Tween-80
[5] = dose: 25.0 mg/kg/injection, schedule: Q01DX009 (ip), vehicle: saline with Tween-80
[6] = dose: 60.0 mg/kg/injection, schedule: Q01DX005 (ip), vehicle: saline
[7] = dose: 120.0 mg/kg/injection, schedule: Q01DX005 (ip), vehicle: saline
[8] = dose: 50.0 mg/kg/injection, schedule: Q01DX005 (ip), vehicle: Klucel (hydroxypropylcellulose) (HPC)
[9] = dose: 100.0 mg/kg/injection, schedule: Q01DX005 (ip), vehicle: Klucel (hydroxypropylcellulose) (HPC)
[10] = dose: 200.0 mg/kg/injection, schedule: Q01DX005 (ip), vehicle: Klucel (hydroxypropylcellulose) (HPC)
[11] = dose: 100.0 mg/kg/injection, schedule: Q04DX002 (ip), vehicle: saline with Tween-80
[12] = dose: 200.0 mg/kg/injection, schedule: Q04DX002 (ip), vehicle: saline with Tween-80
[13] = dose: 400.0 mg/kg/injection, schedule: Q04DX002 (ip), vehicle: saline with Tween-80
[14] = dose: 50.0 mg/kg/injection, schedule: Q01DX005 (ip), vehicle: saline with Tween-80
[15] = dose: 100.0 mg/kg/injection, schedule: Q01DX005 (ip), vehicle: saline with Tween-80
[16] = dose: 25.0 mg/kg/injection, schedule: Q04DX003 (ip), vehicle: saline with Tween-80
[17] = dose: 100.0 mg/kg/injection, schedule: Q04DX003 (ip), vehicle: saline with Tween-80
[18] = dose: 200.0 mg/kg/injection, schedule: Q04DX003 (ip), vehicle: saline with Tween-80

O=[N+]([O-])c1ccc(Sc2ncccn2)cc1
T/C (dose: 25.0 mg/kg/injection, schedule: Q04DX002 (ip), vehicle: suspension in saline): 108 % of control | T/C (dose: 50.0 mg/kg/injection, schedule: Q04DX002 (ip), vehicle: suspension in saline): 94 % of control | T/C (dose: 100.0 mg/kg/injection, schedule: Q04DX002 (ip), vehicle: suspension in saline): 101 % of control | T/C (dose: 200.0 mg/kg/injection, schedule: Q04DX002 (ip), vehicle: suspension in saline): 100 % of control | T/C (dose: 400.0 mg/kg/injection, schedule: Q04DX002 (ip), vehicle: suspension in saline): 96 % of control

N#CCCCCCBr
T/C [1]: 98 % of control | T/C [2]: 100 % of control | T/C [3]: 100 % of control

CCO/C=N/NS(=O)(=O)c1ccc(C)cc1
T/C (dose: 6.25 mg/kg/injection, schedule: Q01DX009 (ip), vehicle: distilled water + Tween-80): 108 % of control | T/C (dose: 12.5 mg/kg/injection, schedule: Q01DX009 (ip), vehicle: distilled water + Tween-80): 108 % of control | T/C (dose: 12.5 mg/kg/injection, schedule: Q01DX009 (ip), vehicle: other): 104 % of control | T/C [4]: 105 % of control | T/C [5]: 98 % of control | T/C (dose: 50.0 mg/kg/injection, schedule: Q01DX009 (ip), vehicle: other): 104 % of control | T/C [1]: 96 % of control | T/C (dose: 100.0 mg/kg/injection, schedule: Q01DX009 (ip), vehicle: other): 98 % of control | T/C [2]: 92 % of control | T/C (dose: 200.0 mg/kg/injection, schedule: Q01DX009 (ip), vehicle: other): 106 % of control

Cc1oc2ccccc2c(=O)c1CN1CCN(c2ccccc2)CC1
T/C [6]: 103 % of control | T/C [7]: 101 % of control | T/C (dose: 240.0 mg/kg/injection, schedule: Q01DX005 (ip), vehicle: saline): 92 % of control

O=[N+]([O-])c1ccc2oc([N+](=O)[O-])cc2c1
T/C [8]: 101 % of control | T/C [9]: 100 % of control | T/C [10]: 101 % of control

CN(C)c1ccc(N=Nc2cc3c4ccccc4ccc3c3ccccc23)cc1
T/C (dose: 50.0 mg/kg/injection, schedule: Q01DX009 (ip), vehicle: Klucel (hydroxypropylcellulose) (HPC)): 109 % of control | T/C (dose: 100.0 mg/kg/injection, schedule: Q01DX009 (ip), vehicle: Klucel (hydroxypropylcellulose) (HPC)): 114 % of control | T/C (dose: 200.0 mg/kg/injection, schedule: Q01DX009 (ip), vehicle: Klucel (hydroxypropylcellulose) (HPC)): 117 % of control

O=NNc1cnc(-c2ccccc2)c(-c2ccccc2)n1
T/C (dose: 3.12 mg/kg/injection, schedule: Q01DX009 (ip), vehicle: water): 103 % of control | T/C (dose: 6.25 mg/kg/injection, schedule: Q01DX009 (ip), vehicle: water): 104 % of control | T/C (dose: 12.5 mg/kg/injection, schedule: Q01DX009 (ip), vehicle: water): 105 % of control and 111 % of control | T/C (dose: 25.0 mg/kg/injection, schedule: Q01DX009 (ip), vehicle: water): 116 % of control and 117 % of control | T/C (dose: 100.0 mg/kg/injection, schedule: Q01DX009 (ip), vehicle: water): 96 % of control

CCn1c2ccccc2c2ccc(N=Cc3cccc4ccccc34)cc21
T/C (dose: 100.0 mg/kg/injection, schedule: Q04DX003 (ip), vehicle: saline + alcohol): 105 % of control | T/C (dose: 200.0 mg/kg/injection, schedule: Q04DX003 (ip), vehicle: saline + alcohol): 97 % of control | T/C (dose: 400.0 mg/kg/injection, schedule: Q04DX003 (ip), vehicle: saline + alcohol): 105 % of control

COc1ccc(N2C(=O)C3C4C=CC(C3C2=O)N(C)C4=O)cc1 (stereo not drawn)
T/C [11]: 101 % of control | T/C [12]: 98 % of control | T/C [13]: 87 % of control

CN(C)c1ccc(C2(c3ccc(N(C)C)cc3)c3ccccc3C(=O)N2N)cc1
T/C [14]: 86 % of control | T/C [15]: 86 % of control

CC(C)(C)N=C(CCNC1CCCCC1)Nc1c(Cl)cccc1Cl
T/C [1]: 100 % of control | T/C [2]: 106 % of control

CC(C)(C)N1OC1c1ccccc1 (stereo not drawn)
T/C [16]: 108 % of control | T/C (dose: 50.0 mg/kg/injection, schedule: Q04DX003 (ip), vehicle: saline with Tween-80): 105 % of control | T/C [17]: 108 % of control | T/C [18]: 108 % of control

O=C(C=C(C(F)(F)F)C(F)(F)F)c1ccccc1Cl
T/C (dose: 6.25 mg/kg/injection, schedule: Q01DX009 (ip), vehicle: saline with Tween-80): 110 % of control | T/C [4]: 150 % of control | T/C (dose: 12.5 mg/kg/injection, schedule: Q04DX003 (ip), vehicle: saline with Tween-80): 113 % of control | T/C [16]: 118 % of control

CC1=CC(C)(C)NC(=S)N1c1cccc2ccccc12
T/C [5]: 116 % of control | T/C [1]: 103 % of control | T/C [2]: 110 % of control | T/C [3]: 113 % of control

COC(=O)c1ccc(COc2ccc([N+](=O)[O-])cc2Cl)cc1
T/C [14]: 100 % of control | T/C [15]: 104 % of control | T/C [17]: 105 % of control | T/C (dose: 200.0 mg/kg/injection, schedule: Q01DX005 (ip), vehicle: saline with Tween-80): 104 % of control | T/C [18]: 105 % of control | T/C (dose: 400.0 mg/kg/injection, schedule: Q04DX003 (ip), vehicle: saline with Tween-80): 103 % of control

Cc1cc(NS(=O)(=O)c2ccc(NCc3c4ccccc4nc4cc(Cl)ccc34)cc2)no1
T/C (dose: 60.0 mg/kg/injection, schedule: Q01DX005 (ip), vehicle: saline with Tween-80): 94 % of control | T/C (dose: 120.0 mg/kg/injection, schedule: Q01DX005 (ip), vehicle: saline with Tween-80): 94 % of control | T/C (dose: 240.0 mg/kg/injection, schedule: Q01DX005 (ip), vehicle: saline with Tween-80): 94 % of control

COC(=O)c1cc(-c2cccnc2)[nH]c(=O)c1C#N
T/C [6]: 104 % of control | T/C [7]: 100 % of control

Cn1c2nc(-[n+]3ccc(-c4ccccc4)cc3)nc-2c([O-])n(C)c1=O
T/C (dose: 100.0 mg/kg/injection, schedule: Q04DX003 (ip), vehicle: saline): 99 % of control | T/C (dose: 200.0 mg/kg/injection, schedule: Q04DX003 (ip), vehicle: saline): 89 % of control

CC(=O)Nc1cc2cc(N=CN(C)C)ccc2oc1=O
T/C (dose: 60.0 mg/kg/injection, schedule: Q01DX005 (ip), vehicle: Klucel + Tween-80): 99 % of control | T/C (dose: 120.0 mg/kg/injection, schedule: Q01DX005 (ip), vehicle: Klucel + Tween-80): 104 % of control

CCC(=O)OCc1c(-c2ccccc2)nc2sccn12
T/C (dose: 200.0 mg/kg/injection, schedule: Q01DX001 (ip), vehicle: Klucel (hydroxypropylcellulose) (HPC)): 103 % of control

Cc1oc(-c2ccccc2F)nc1C(N)=O
T/C [1]: 96 % of control | T/C [2]: 95 % of control | T/C [3]: 91 % of control

CC1C(=O)OC2C1CCC1(C)C=CC(=O)C3(C)OC213 (stereo not drawn)
T/C (dose: 60.0 mg/kg/injection, schedule: Q01DX005 (ip), vehicle: Klucel (hydroxypropylcellulose) (HPC)): 100 % of control | T/C (dose: 120.0 mg/kg/injection, schedule: Q01DX005 (ip), vehicle: Klucel (hydroxypropylcellulose) (HPC)): 104 % of control | T/C (dose: 240.0 mg/kg/injection, schedule: Q01DX005 (ip), vehicle: Klucel (hydroxypropylcellulose) (HPC)): 105 % of control

C[n+]1ccc(CC(Cc2cc[n+](C)cc2)c2ccc(Br)cc2)cc1
T/C (dose: 6.25 mg/kg/injection, schedule: Q01DX009 (ip), vehicle: Klucel (hydroxypropylcellulose) (HPC)): 110 % of control | T/C (dose: 12.5 mg/kg/injection, schedule: Q01DX009 (ip), vehicle: Klucel (hydroxypropylcellulose) (HPC)): 110 % of control | T/C (dose: 25.0 mg/kg/injection, schedule: Q01DX009 (ip), vehicle: Klucel (hydroxypropylcellulose) (HPC)): 108 % of control

COc1cccc2c1C(=O)c1ccccc1-2
T/C [8]: 102 % of control | T/C [9]: 102 % of control | T/C [10]: 91 % of control

Cc1cc(O)c(O)c(Oc2cc(C)cc(O)c2O)c1
T/C (dose: 75.0 micrograms/kg/injection, schedule: Q01DX009 (ip), vehicle: saline): 100 % of control | T/C (dose: 150.0 micrograms/kg/injection, schedule: Q01DX009 (ip), vehicle: saline): 109 % of control | T/C (dose: 300.0 micrograms/kg/injection, schedule: Q01DX009 (ip), vehicle: saline): 102 % of control

CC1=C(C)SC(=C2SC=CS2)S1
T/C [11]: 102 % of control | T/C [12]: 92 % of control | T/C [13]: 95 % of control
